In patent publication US11168055B2, “Endocyclic thiamidinoamide-arylamide compound and use thereof for treating hepatitis B” (SHANGHAI LONGWOOD BIOPHARMACEUTICALS CO., LTD., priority 2017, dated 2021) one finds CC50 and EC50 data, which are given here for 32 compounds.

One data set relates to HepG2 cells. The data set is described as follows: Determination of cytotoxicity (HepG2 cells, resazurin assay, 4 days). The format is cell-based. The note with it: read-out: Experiment 3 Cytotoxicity CC50. The procedure:
(§1) Experiment 3: Determination of Cytotoxicity
(§2) The cytotoxicity of the test compound was tested using HepG2 cells. The cells were incubated for 4 days in the presence of the test compound. Cell activity was assessed using the resazurin assay.
(In general: Resazurin is reduced to fluorescent resorufin, in cell work by metabolically active cells.)

In data set [1] the test system is HBV DNA in the supernatant of HepG2.2.15. The data set can be described thus: Determination of anti-HBV activity in HepG2.2.15 cell (HBV DNA in supernatant by qPCR). The format is cell-based, Hepatitis B virus. The note with it: HepG2.2.15 cells, HBV DNA; read-out: Experiment 2 Cell experiment EC50. A general note: Quantitative PCR measures a nucleic acid by following its amplification.

A short description of data set [2]: Determination of cytotoxicity (HepG2 cells, resazurin assay, 4 days). The format is cell-based. The following applies: human, read-out: Experiment 3 Cytotoxicity CC50. How it is done: as §1, §2

One may read the CC50 as the concentration that lowers cell viability or growth by half. One may read the EC50 as the concentration at which the effect is half-maximal. `CC(C)[C@H]1CCc2c(nn(C)c2C(=O)Nc2ccc(F)c(C#N)c2)S(=N)(=O)N1` (single isomer, unassigned) [Compound 80a2]: the cytotoxic concentration (CC50) in the data set on HepG2 cells is greater than 30000 nM. Moreover, the EC50 in data set [1] lay within 0.1 to 100 nM.

Turning to `CC(C)[C@H]1C=Cc2c(cn(C)c2C(=O)Nc2ccc(F)c(F)c2)S(=N)(=O)N1` (single isomer, unassigned) [Compound 10a2], the CC50 in the data set with HepG2 cells is greater than 30000 nM. The EC50 in data set [1] fell in the range of 0.1 to 100 nM.

`CC(O)[C@H]1C=Cc2c(cn(C)c2C(=O)Nc2ccc(F)c(C#N)c2)S(=N)(=O)N1` (single isomer, unassigned) [Compound 30b2]: the CC50 in the data set with HepG2 cells is greater than 30000 nM. Besides, the EC50 in data set [1] was 100 to 1000 nM.

Regarding `CC(C)[C@H]1C=Cc2c(nn(C)c2C(=O)Nc2ccc(F)c(C#N)c2)S(=N)(=O)N1` (single isomer, unassigned) [Compound 70a2], the CC50 with HepG2 cells was greater than 30000 nM. Besides, the EC50 in data set [1] lay within 0.1 to 100 nM.

As for `CN=S1(=O)N[C@@H](C(C)C)CCc2c1cn(C)c2C(=O)Nc1ccc(F)c(F)c1` (single isomer, unassigned) [Compound 60a2], the CC50 in the data set on HepG2 cells was greater than 30000 nM. The EC50 in data set [1] was 0.1 to 100 nM.

As to `CC(C)C[C@H]1C=Cc2c(nn(C)c2C(=O)Nc2ccc(F)c(C#N)c2)S(=N)(=O)N1` (single isomer, unassigned) [Compound 70b2], the CC50 in the data set on HepG2 cells is greater than 30000 nM. Also, the concentration giving a half-maximal response (EC50) in data set [1] was 0.1 to 100 nM.

As to `CCN=S1(=O)N[C@@H](CC(C)C)CCc2c1cn(C)c2C(=O)Nc1ccc(F)c(C#N)c1` (single isomer, unassigned) [Compound 60w2], in the data set with HepG2 cells, the CC50 was greater than 30000 nM. Further, the half-maximal effective concentration (EC50) in data set [1] lay within 0.1 to 100 nM.

Regarding `CC(C)[C@H]1CCc2c(cn(C)c2C(=O)Nc2ccc(F)c(F)c2)S(=N)(=O)N1` (single isomer, unassigned) [Compound 20a2], the CC50 in the data set with HepG2 cells was greater than 30000 nM. For the same compound, the EC50 in data set [1] is 0.1 to 100 nM.

With `Cn1cc2c(c1C(=O)Nc1ccc(F)c(F)c1)C=C[C@H](C1CCCCC1)NS2(=N)=O` (single isomer, unassigned) [Compound 10bb2], in the data set on HepG2 cells, the CC50 was greater than 30000 nM. Moreover, the concentration for a half-maximal effect (EC50) in data set [1] was 0.1 to 100 nM.

In the case of `CC(C)C[C@H]1CCc2c(cn(C)c2C(=O)Nc2ccc(F)c(C#N)c2)S(=O)(=NC(C)C)N1` (single isomer, unassigned) [Compound 60x2], the CC50 with HepG2 cells is greater than 30000 nM. In addition, in data set [1], the EC50 lay in the range of 0.1 to 100 nM.

Take `COc1ccc(CC[C@H](C)[C@H]2C=Cc3c(cn(C)c3C(=O)Nc3cc(F)nc(C#N)c3)S(=N)(=O)N2)cc1` (single isomer, unassigned) [Compound 10vvv2]: the 50% cytotoxic concentration (CC50) in the data set with HepG2 cells was greater than 30000 nM. Further, the EC50 in data set [1] fell in the range of 0.1 to 100 nM.

As for `Cn1cc2c(c1C(=O)Nc1ccc(F)c(F)c1)CC[C@H](CO)NS2(=N)=O` (single isomer, unassigned) [Compound 40g2], the CC50 in the data set with HepG2 cells is greater than 30000 nM. The EC50 in data set [1] fell in the range of 100 to 1000 nM.

As for `CC(C)[C@H]1C=Cc2c(cn(C)c2C(=O)Nc2ccnc(C(F)F)c2)S(=N)(=O)N1` (single isomer, unassigned) [Compound 10f2], the CC50 with HepG2 cells was greater than 30000 nM. Besides, the 50% effective concentration (EC50) in data set [1] was 0.1 to 100 nM.

For `CCN=S1(=O)N[C@@H](C(C)C)CCc2c1cn(C)c2C(=O)Nc1ccc(F)c(C#N)c1` (single isomer, unassigned) [Compound 60g2], the cytotoxic concentration (CC50) with HepG2 cells is greater than 30000 nM. In addition, the EC50 in data set [1] was in the range of 0.1 to 100 nM.

For `CN=S1(=O)N[C@@H](C(C)C)CCc2c1nn(C)c2C(=O)Nc1ccc(F)c(C#N)c1` (single isomer, unassigned) [Compound 90a2], the cytotoxic concentration (CC50) in the data set with HepG2 cells is greater than 30000 nM. In data set [1], the EC50 was in the range of 0.1 to 100 nM.

For the compound `CC(O)[C@H]1CCc2c(cn(C)c2C(=O)Nc2ccc(F)c(C#N)c2)S(=N)(=O)N1` (single isomer, unassigned) [Compound 40b2], in the data set on HepG2 cells, the CC50 was greater than 30000 nM. Moreover, the half-maximal effective concentration (EC50) in data set [1] lay in the range of 100 to 1000 nM.

Take `CC(O)[C@H]1CCc2c(cn(C)c2C(=O)Nc2ccc(F)c(F)c2)S(=N)(=O)N1` (single isomer, unassigned) [Compound 40a2]: in the data set on HepG2 cells, the CC50 was greater than 30000 nM. The half-maximal effective concentration (EC50) in data set [1] fell in the range of 100 to 1000 nM.

Take `CC(C)[C@H]1CCc2c(cn(C)c2C(=O)Nc2ccc(F)c(C#N)c2)S(=N)(=O)N1` (single isomer, unassigned) [Compound 20b2]: the half-maximal cytotoxic concentration (CC50) in the data set on HepG2 cells was greater than 30000 nM. Also, the EC50 in data set [1] was in the range of 0.1 to 100 nM.

Turning to `CN=S1(=O)N[C@@H](C(C)C)C=Cc2c1cn(C)c2C(=O)Nc1ccc(F)c(F)c1` (single isomer, unassigned) [Compound 50a2], the half-maximal cytotoxic concentration (CC50) with HepG2 cells was greater than 30000 nM. Besides, the concentration for a half-maximal effect (EC50) in data set [1] was 0.1 to 100 nM.

With `CC(O)[C@H]1C=Cc2c(cn(C)c2C(=O)Nc2ccc(F)c(F)c2)S(=N)(=O)N1` (single isomer, unassigned) [Compound 30a2], the CC50 with HepG2 cells is greater than 30000 nM. Besides, in data set [1], the EC50 fell in the range of 100 to 1000 nM.

In the case of `CN=S1(=O)N[C@@H](CC(C)C)C=Cc2c1cn(C)c2C(=O)Nc1ccc(F)c(C#N)c1` (single isomer, unassigned) [Compound 50s2], the CC50 in the data set with HepG2 cells is greater than 30000 nM. In addition, in data set [1], the concentration giving a half-maximal response (EC50) lay in the range of 0.1 to 100 nM.

As to `CCN=S1(=O)N[C@@H](CC(C)C)C=Cc2c1cn(C)c2C(=O)Nc1ccc(F)c(C#N)c1` (single isomer, unassigned) [Compound 50t2], the CC50 in the data set with HepG2 cells was greater than 30000 nM. The EC50 in data set [1] lay within 0.1 to 100 nM.

Take `CC(C)C[C@H]1C=Cc2c(cn(C)c2C(=O)Nc2cc(F)nc(C#N)c2)S(=N)(=O)N1` (single isomer, unassigned) [Compound 10w2]: in the data set on HepG2 cells, the cytotoxic concentration (CC50) was greater than 30000 nM. Moreover, the EC50 in data set [1] fell in the range of 0.1 to 100 nM.

In the case of `CC(C)C[C@H]1C=Cc2c(cn(C)c2C(=O)Nc2ccc(F)c(C#N)c2)S(=O)(=NC(C)C)N1` (single isomer, unassigned) [Compound 50u2], the CC50 in the data set with HepG2 cells is greater than 30000 nM. Besides, in data set [1], the concentration giving a half-maximal response (EC50) is 0.1 to 100 nM.

On to `CC(C)C[C@H]1CCc2c(cn(C)c2C(=O)Nc2ccc(F)c(C#N)c2)S(=O)(=NC2CC2)N1` (single isomer, unassigned) [Compound 60y2], for which, in the data set on HepG2 cells, the CC50 is greater than 30000 nM. Further, the concentration for a half-maximal effect (EC50) in data set [1] lay within 0.1 to 100 nM.

`Cn1cc2c(c1C(=O)Nc1ccc(F)c(F)c1)C=C[C@H](CO)NS2(=N)=O` (single isomer, unassigned) [Compound 30g2]: the 50% cytotoxic concentration (CC50) with HepG2 cells is greater than 30000 nM. Moreover, the concentration for a half-maximal effect (EC50) in data set [1] lay within 100 to 1000 nM.

In the case of `CC(C)C[C@H]1CCc2c(nn(C)c2C(=O)Nc2ccc(F)c(C#N)c2)S(=N)(=O)N1` (single isomer, unassigned) [Compound 80b2], in the data set with HepG2 cells, the CC50 was greater than 30000 nM. Moreover, the EC50 in data set [1] lay within 0.1 to 100 nM.

On to `CC(C)[C@H]1C=Cc2c(nn(C)c2C(=O)Nc2ccc(F)c(C#N)c2)S(=N)(=O)N1` (single isomer, unassigned) [Compound 70a1], for which the CC50 at 4 days in data set [2] was greater than 30000 nM. For the same compound, the concentration for a half-maximal effect (EC50) in data set [1] fell in the range of 100 to 1000 nM.

As for `CC(C)C[C@H]1C=Cc2c(cn(C)c2C(=O)Nc2ccc(F)c(C#N)c2)S(=O)(=NC(C)C)N1` (single isomer, unassigned) [Compound 50u1], in data set [2], the half-maximal cytotoxic concentration (CC50) at 4 days is greater than 30000 nM. Moreover, the concentration for a half-maximal effect (EC50) in data set [1] lay within 100 to 1000 nM.

With `CC(C)[C@H]1C=Cc2c(cn(C)c2C(=O)Nc2ccc(F)c(F)c2)S(=N)(=O)N1` (single isomer, unassigned) [Compound 10a1], the CC50 at 4 days in data set [2] was greater than 30000 nM. The EC50 in data set [1] lay in the range of 100 to 1000 nM.

`Cn1cc2c(c1C(=O)Nc1ccnc(C(F)F)c1)CC[C@H](C1CCCCC1)NS2(=N)=O` (single isomer, unassigned) [Compound 20ee1]: in data set [2], the cytotoxic concentration (CC50) at 4 days is greater than 30000 nM. Further, the EC50 in data set [1] lay in the range of 100 to 1000 nM.

With `CCN=S1(=O)N[C@@H](CC(C)C)CCc2c1cn(C)c2C(=O)Nc1ccc(F)c(C#N)c1` (single isomer, unassigned) [Compound 60w1], the CC50 at 4 days in data set [2] was greater than 30000 nM. For the same compound, the EC50 in data set [1] lay in the range of 100 to 1000 nM.
